Test results reported in paper PMC6920962, “Unravelling the Skin Secretion Peptides of the Gliding Leaf Frog, Agalychnis spurrelli (Hylidae)” (Biomolecules, 2019).
Values after ≈ are worked out from the molar mass of the structure shown. Values joined by “and” are separate entries in the source; they are usually repeats but may differ in a detail not shown here. Equal values may be shown once. Read-outs that look alike come from different tables or passages of the source. Marks after values point to notes of the source that are not given here. Ends that are not written are not given here.

Columns and labels:
[1] = test system: Staphylococcus aureus ATCC 25923; parameters: method as in 4 sources, ref Cuesta et al., 2019 (41) ||| ref Charpantier, et al., 1998 (39) ||| ref Raja et al., 2013 (40) ||| ref Reimer et al., 1981 (42); conditions: cited from earlier work
[2] = cited from earlier work
[3] = test system: Escherichia coli ATCC 25922; parameters: method as in 6 sources, ref Cuesta et al., 2019 (41) ||| ref Charpantier, et al., 1998 (39) ||| ref Raja et al., 2013 (40) ||| ref Reimer et al., 1981 (42) ||| ref 20, 22 = [20]; PMID 17561225; doi:10.1016/j.toxicon.2007.04.017; 20. Conlon J.M. Woodhams D.C. Raza H. Coquet L. Leprince J. Jouenne T. Vaudry H. Rollins-Smith L.A. Peptides with Differential Cytolytic Activity from Skin Secretions of the Lemur Leaf Frog Hylomantis || [22]; PMID 23415652; doi:10.1016/j.biochi.2013.02.005; 22. Xi X. Li R. Jiang Y. Lin Y. Wu Y. Zhou M. Xu J. Wang L. Chen T. Shaw C. Medusins: A New Class of Antimicrobial Peptides from the Skin Secretions of Phyllomedusine Frogs Biochimie 2013 95 1288 1296 ||| ...; conditions: cited from earlier work
P. aeruginosa = conditions: cited from earlier work
Candida albicans [4] = test system: Candida albicans; parameters: method as in Cuesta et al., 2019 (41); conditions: broth microdilution; ref Cuesta et al., 2019 (41); cited from earlier work
Method: In this work, skin secretion from this amphibian was analysed by molecular cloning and tandem mass spectrometry.

[5] = test system: Klebsiella pneumonia clinical isolate
Method: (§1) For the in vitro evaluation of antimicrobial potentials of new biochemical structures identified herein, five synthetic peptides were purchased from a commercial supplier (Biomatik). Approximately 100 mg of each peptide was synthetized by Fmoc technology. […] The lyophilized peptides were kept at −20 °C and diluted in dimethyl sulfoxide (DMSO) before the antimicrobial assays, which were performed according to broth microdilution methodology detailed by Proaño et al.. Minimal inhibitory concentration of the synthetic peptides was determined against the following Gram-positive bacteria: Staphylococcus aureus ATCC 25923 and S. aureus oxacillin resistant strain; Gram-negative bacteria: Escherichia coli ATCC 25922 and Klebsiella pneumonia clinical isolate; and the opportunistic pathogenic yeast Candida albicans. Briefly, peptides were dissolved in DMSO at the following concentrations: 512, 256, 128, 64, 32, 16, 8, 4, 2, 1 […] mg/L. Each bacteria/yeast was cultured until reach log phase and then it was diluted to obtain 1 × 10^6 CFU/mL for bacteria and 1 × 10^5 CFU/mL for the yeast. Assays were prepared in 96 well sterile plates where 198 µL of each microorganism was challenged with 2 μL of the diluted peptides at the serial dilutions mentioned above. […] Another control included 200 μL of Muller Hinton broth without microorganisms to be used as blank with no growth. Seven replicates per peptide concentration was employed and experiments were performed in triplicates. […] MIC was determined as the minimal concentration of peptide required to inhibit the growth of >95% of microbial growth.

red blood cells = type: cell-based
Method: Aiming to determine the toxicity of frog peptides to red blood cells, in vitro assays were performed with different concentrations of each peptide. The diluted peptides (employing the same concentrations than for the antimicrobial assay described above) were incubated with a suspension of red blood cells (2%) (7.7 × 10^6 ± 0.3 × 10^6 cells/mL) at a ratio of 1:1 (v/v), in a total volume of 400 µL for 2 h at 37 °C. After the incubation period, the cells were centrifuged at 3000 rpm for 5 min and transferred to a 96 well plates. The haemolytic activity was monitored at 550 nm and was performed in triplicate. PBS and 2% (v/v) Triton X-100 were used as negative and positive controls, respectively.

[6] = test system: Staphylococcus aureus ATCC 25923; conditions: ATCC 25923, 18 h
Method: as §1

[7] = test system: Escherichia coli ATCC 25922; conditions: ATCC 25922, 18 h
Method: as §1

Candida albicans [8] = conditions: 18 h
Method: as §1

[9] = test system: S. aureus Oxacillin Resistant (ORSA Strain 20)
Method: as §1

[10] = ref Charpantier, et al., 1998 (39)
[11] = ref Reimer et al., 1981 (42), listed as ampicillin
[12] = broth microdilution, ref Cuesta et al., 2019 (41)
[13] = broth microdilution, ref Cuesta et al., 2019 (41), listed as dermaseptin-2
[14] = broth microdilution, 1 × 10^6 CFU/mL, 37 °C 18 h, OD 600 nm, MIC = >95% growth inhibition, seven replicates, triplicate experiments

Compound: ALWKDILKNVGKAAGKAVLNTVTDMVNQ-NH2 [Dermaseptin-B4]
- MIC S. aureus ATCC 25923 [1, 10]: 3.00 ** μM
- MIC S. aureus ATCC 25923 ([1]; ref Charpantier, et al., 1998 (39), listed as DRS-B4): 3 µM
- Concentration at which cytotoxicity was exhibited [2]: 12 µM
- MIC E. coli ATCC 25922 [3, 10]: 5.00 ** μM
- MIC P. aeruginosa (P. aeruginosa): 4.6 to 11.6 µM

Compound: CC1(C)S[C@@H]2[C@H](NC(=O)[C@H](N)c3ccccc3)C(=O)N2[C@H]1C(=O)O [Ampicillin]
- MIC S. aureus ATCC 25923 ([1]; ref Reimer et al., 1981 (42)): 0.1 **** μM
- MIC S. aureus ATCC 25923 [1, 11]: 0.1 µM (≈ 0.0349 µg/mL)
- MIC E. coli ATCC 25922 ([3]; ref Reimer et al., 1981 (42)): 6.0 **** μM
- MIC E. coli ATCC 25922 [3, 11]: 6 µM (≈ 2.1 µg/mL)

Compound: FLSLIPHIVSGVASIAKHFG [Phyloseptin-S1, phylloseptin of P. sauvagii]
- MIC S. aureus ATCC 25923 ([1]; ref Raja et al., 2013 (40)): 6.25 *** μM
- MIC E. coli ATCC 25922 ([3]; ref Raja et al., 2013 (40)): 70.00 *** μM

Compound: SLRSSIKDMAAAAGRAALNAVNGIVNP-NH2 [Dermaseptin-SP5, novel dermaseptin of A. spurrelli, synthetic amidated peptide]
- MIC S. aureus ATCC 25923 [1, 12]: > 192.12 μM and > 512 mg/L
- MIC C. albicans (Candida albicans [4]): 384.24 μM and 1024 mg/L
- MIC E. coli ATCC 25922 [3, 12]: 96.06 μM and 256 mg/L

Compound: SLWSSIKDMAAAAGRAALNAVNGIVNP-NH2 [Dermaseptin-SP3]
- MIC K. pneumoniae Clinical Isolate ([5]; 18 h): > 189.98 µM

Compound: SLWSSIKDMAAAAGRAALNAVNGILNP-NH2 [Dermaseptin-SP4]
- MIC K. pneumoniae Clinical Isolate ([5]; 18 h): 189.00 µM

Compound: FLSLIPHVISAIPHVVNALSNL-NH2 [Phylloseptin-SP1]
- Toxicity to red blood cells compared with the dermaseptins (red blood cells): greater toxicity to red blood cells than did the dermaseptins
- MIC K. pneumoniae Clinical Isolate ([5]; 18 h): > 189.00 µM
- MIC S. aureus ATCC 25923 [6]: > 217.69 µM
- MIC E. coli ATCC 25922 [7]: > 217.69 µM
- MIC C. albicans (Candida albicans [8]): > 217.69 µM

Compound: ASWKVFLKNIGKAAGKAVLNSVTDMVNQ-NH2 [Dermaseptin-SP2]
- MIC S. aureus ATCC 25923 [1, 12]: 2.68 µM
- MIC S. aureus ATCC 25923 [1, 13]: 2.68 µM
- MIC C. albicans (Candida albicans [4]): 10.71 µM
- MIC E. coli ATCC 25922 [3, 12]: 2.68 µM
- MIC E. coli ATCC 25922 [3, 13]: 2.68 µM
- MIC S. aureus Oxacillin Resistant (ORSA Strain 20) ([9]; Oxacillin Resistant (ORSA Strain 20, 18 h)): 2.68 µM
- MIC S. aureus Oxacillin Resistant (ORSA Strain 20) [9, 14]: 8 µg/mL
- MIC S. aureus Oxacillin Resistant (ORSA Strain 20) ([9]; broth microdilution, 1 × 10^6 CFU/mL, 37 °C 18 h, OD 600 nm, MIC = >95% growth inhibition, seven replicates, triplicate experiments, listed as dermaseptin-2): 2.68 µM
- MIC K. pneumoniae Clinical Isolate ([5]; 18 h): 10.71 µM
- MIC K. pneumoniae Clinical Isolate [5, 14]: 32 µg/mL

Compound: ALWKTMLKKLGTMALHAGKAALGAAADTISQGTQ [Dermaseptin-S1, dermaseptin of Phyllomedusa sauvagii]
- MIC S. aureus ATCC 25923 [1, 10]: 60.00 ** μM
- MIC E. coli ATCC 25922 [3, 10]: 46 μM and 46.00 ** μM
